Source: PMC3949575 (The Journal of Experimental Medicine, 2014)

Target: deoxycytidine kinase (dCK) (Homo sapiens, UniProt P27707)
Assay: HTS hit
Assay type: cell-based

COc1ccc(Br)cc1-c1nc(CSc2nc(N)cc(N)n2)cs1 [DI-0120]
IC50: 1.4 µM
